Legend:
[1] = target: QSOX1 5′UTR hairpin (model of the QSOX1-a binding site); test: In vitro binding by fluorescence polarization, Cy5-labeled WT RNA; design: species or system human
Description: In Vitro Binding by Measuring Changes in Fluorescence Polarization. Cy5-labeled RNA was folded by heating at 95° C. for 2 min in 1× Folding Buffer and cooled on ice. Serial dilutions of F1 (200 to 0.4 μM, 1:1 dilutions) were prepared in 1× Folding Buffer with 4% (w/v) bovine serum albumin (BSA) with constant DMSO concentration (2% v/v). The compound solutions (10 μL) were added to a well of non-binding 384-well plate (Corning). An equal volume of folded RNA was adding to each well with a final concentration of 50 nM. The samples were incubated at room temperature for 30 min, and then fluorescence polarization was measured with a Molecular Devices SpectraMax M5 plate reader with an excitation wavelength of 640 nm and an emission wavelength of 680 nm.

QSOX-1b = test: QSOX1-b protein abundance by Western blotting in MDA-MB-231 cells; format: cell-based, human
Description: Measuring Protein Abundance by Western Blotting. MDA-MB-231 cells were seeded in 6-well plates at ˜50% confluency and treated with vehicle (DMSO) or compound as described above but without EU treatment. After 16 h, the compound-containing growth medium was removed and replaced with fresh medium containing compound (re-dosing). After an additional 32 h incubation, total protein was harvested (48 h total treatment time). The cells were then washed twice with cold 1×DPBS, and total protein was harvested by using Mammalian Protein Extraction Reagent (M-PER, Thermo Scientific) per the manufacturer's protocol. Protein concentration was quantified by using BCA Protein Assay Kit (Pierce), and the proteins were separated by using 10% SDS-polyacrylamide gel (20 μg protein per lane). After gel electrophoresis in 1× Running Buffer (50 mM MOPS, 50 mM Tris-base, pH 7.5, 1 mM EDTA, and 0.1% (w/v) SDS) at 120 V for 1 h, the proteins were transferred to a PVDF membrane (0.45 μm, Cytiva) at 300 mA for 1 h in 1× Transfer Buffer (25 mM Bicine, 25 mM Tris-base, pH 7.5, 1:4 MeOH:H2O). The membrane was blocked with 5% (w/v) non-fat dry milk in TBST (1×TBS containing 0.1% (v/v) Tween-20) for 1 h at room temperature. […] Expression levels of proteins were quantified based on band intensity by using ImageJ. […]

[2] = test system: proteins of MDA-MB-231 cells (human proteome); test: Proteomics analysis of proteins cross-linked in MDA-MB-231 cells; format: cell-based; conditions: of the 3,158 proteins detectable before pull-down
Description: Proteomic Sample Preparation and Analysis. MDA-MB-231 cells were seeded in 60 mm dishes and allowed to reach ˜80% confluency. The cells were then treated with […] of compound in growth medium and incubated for 16 h. Cells were washed with 1×DPBS and irradiated with UV light for 10 min. For each condition, two biological replicates were prepared, and each biological replicate was split into three technical replicates. […]
Pulled-down proteins were released from beads by resuspending in 6 M urea/1×PBS (0.5 mL) supplemented with 10 mM of TCEP at room temperature for 30 min. […] To the samples was added 1 volume of isopropanol containing 1% (v/v) trifluoroacetic acid, followed by a styrenedivinylbenzene reverse-phase sulfonate (SDB-RPS) StageTip 12 Peptides were resuspended in 0.1% (v/v) formic acid (FA) in water and analyzed using Proxeon EASY-nLC 1200 nano-UHPLC coupled to QExactive HF-X Quadrupole-Orbitrap mass spectrometer (Thermo Scientific). […]
The MS data were analyzed with MaxQuant13 (V1.6.1.0) and searched against the human proteome (Uniprot) and a common list of contaminants included in MaxQuant. […] The minimum peptide length was set to six amino acids and peptide re-quantification was enabled with the minimal number of peptides per protein set to 2. […]

| Kd [1] [µM] | SMILES | effect on QSOX-1b levels (QSOX-1b) | proteins selectively pulled-down (not pulled-down by the control probe) [2] [proteins] |
| --- | --- | --- | --- |
| 11 ± 5 | CCOC(=O)C1=C(Nc2ccccc2)S/C(=C\c2ccc(OCCOCCOCCOCCNC(=O)CCC(=O)N(C)[C@H]3CC[C@@H](c4ccc(Cl)c(Cl)c4)c4ccccc43)c(O)c2)C1=O [Compound F1-RIBOTAC] | no effect |  |
|  | C#CCCC1(CCC(=O)N(C)[C@H]2CC[C@@H](c3ccc(Cl)c(Cl)c3)c3ccccc32)N=N1 [Compound F1] |  | 79 |

— patent US20250346943A1, “DEGRADER COMPOUNDS OF QSOX1 mRNA” (UNIVERSITY OF FLORIDA RESEARCH FOUNDATION, INCORPORATED, priority 2022, published 2025)
